Measured values: patent US11001560B2, “Compound for blocking absorption of heavy metals by plants and a composition containing the same” (SICHUAN HUI TAI AGRICULTURAL TECHNOLOGY CO. LTD., priority 2018, dated 2021)

Experiments:
pepper = assay: Potted experiment: effect of compound of formula I on reducing heavy metal (Cd, Pb) content in vegetables; format: in vivo
Experimental: (§1) Potted experiments were carried out. The test soil was collected from the topsoil (0-20 cm) of farmland in the outskirts of Chengdu, Sichuan Province. The soil type was purple soil, with a total lead content of 1209.21 mg kg^−1 and a total cadmium content of 8.06 mg kg^−1. After the soil samples were collected, the plant residues were removed, air-dried, and passed through a 5 mm siever for later use. Test plants were bok choy and pepper. The sieved soil was filled into a tray, and 80 g of soil was filled in each tray. Before the planting, watering was carried out for 3 days to maintain the field water holding capacity of about 60%. Seeds of uniform size were selected. The surface of the seed was sterilized with ethanol: 30% H2O2 (V:V=1:1) for 3 minutes, and rinsed with sterile deionized water. The sterilized plant seeds were divided into two groups. One group was soaked in a deionized aqueous solution (5 g/L) of the compound of formula I for 4 hours, and was set as the experimental group. The other group was soaked in deionized water for the same time as the control group. The process was repeated 4 times. The seeds after soaking were sowed in a pot. After 1 week after emergence, 3 plants were left in each pot. The above soaking treatment was performed again, and the roots of the experimental group and the control group were soaked with 5 mL of an aqueous solution containing a compound of formula I and deionized water per pot, respectively. Watering the plant daily was necessary to ensure the necessary water for plant growth. Plants were harvested after 40 days of growth. The plants were removed from the pot and washed with deionized water. After harvesting, the plants were cut into roots and above ground parts along the junction of the rhizomes. The plants were put in an oven at 105° C. for 15 minutes, dried at 70° C., and weighed the dry weight of roots and above ground parts. The plant samples were grounded and digested by the nitric acid-perchloric acid method. The contents of heavy metals Pb and Cd in the plants were determined by atomic absorption spectrophotometer.

bok choy = assay: as above; format: in vivo
Experimental: as §1

[1] = experimental group (5 g/L compound of formula I) vs deionized water control
[2] = seeds soaked 4 hours in 5 g/L aqueous solution, roots soaked again with 5 mL per pot, Pb/Cd-contaminated soil, harvested after 40 days, atomic absorption

For `C/C=C/C(C[C@]1(O)CCNC[C@H](O)CCC2C=CCC(=O)C2C(=O)C/C=C/C=C/C[C@@H](O)C1)OC` (stereo partly shown) [compound of formula I], the “Cd and Pb concentrations in the above ground parts and below ground parts of peppers, compared with the control group” value (pepper; [1]) was “significantly reduce”, the “Cd Concentration in Vegetables, Above Ground Parts, Pepper” value (pepper; [2]) was 2.89 ± 0.39 mg/L and the “Cd Concentration in Vegetables, Below Ground Parts, Pepper” value (pepper; [2]) was 4.58 ± 0.11 mg/L. For the same compound, the “Pb Concentration in Vegetables, Above Ground Parts, Pepper” value (pepper; [2]) was 1.32 ± 0.08 mg/L, the “Pb Concentration in Vegetables, Below Ground Parts, Pepper” value (pepper; [2]) was 5.11 ± 0.63 mg/L and the “Cd and Pb concentrations in the above ground parts and below ground parts of bok choy, compared with the control group” value (bok choy; [1]) was “significantly reduce”. The “Cd Concentration in Vegetables, Above Ground Parts, Bok Choy” value (bok choy; [2]) was 2.08 ± 0.19 mg/L, the “Cd Concentration in Vegetables, Below Ground Parts, Bok Choy” value (bok choy; [2]) was 2.01 ± 0.33 mg/L and the “Pb Concentration in Vegetables, Above Ground Parts, Bok Choy” value (bok choy; [2]) was 1.51 ± 0.06 mg/L. The “Pb Concentration in Vegetables, Below Ground Parts, Bok Choy” value (bok choy; [2]) was 6.71 ± 1.08 mg/L.
